Literature values in patent US20100179106A1, “MITOCHONDRIAL COMPOSITIONS AND USES THEREOF” (Gencia Corporation, priority 2007, published 2010).

Tests used:
brain slice cultures = details: 20 mM creatine, brain slice cultures (Li et al. 2004)
[1] = system: patients with mitochondrial disorders; details: short-term study, creatine supplementation (Tarnopolsky et al. 1997)
[2] = parameters: dose or concentration left out as unconfirmed; details: dosages as high as (Harris et al. 1992)

## CN(CC(=O)O)C(=N)N [creatine, 2-(carbamimidoyl-methyl-amino) acetic acid]
Brain slice cultures
  mitochondrial activity: sufficient to stimulate mitochondrial activity
[1]
  high-intensity anaerobic and aerobic activities: improved
  lower-intensity aerobic activities: no effect
[2]
  side effects: no reported side effects
